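Cells were grown in 96-well plates and exposed to each compound for 48 hours at five concentrations; endpoints were interpolated linearly between bracketing concentrations, or set to the highest concentration if not reached. Definition used: TGI = concentration required for complete inhibition of growth.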
Legend:
Assay in all cases: DTP human tumour cell line panel, 48 h
[1] = system: A549 NSCLC
[2] = system: BT-549 breast
[3] = system: HCC-2998 colon
[4] = system: IGROV1 ovarian
[5] = system: MALME-3M melanoma
[6] = system: MDA-N
[7] = system: OVCAR-3 ovarian
[8] = system: OVCAR-8 ovarian
[9] = system: SF-539 CNS
[10] = system: SNB-75 CNS

| SMILES | TGI [1] [µM] | TGI [2] [µM] | TGI [3] [µM] | TGI [4] [µM] | TGI [5] [µM] | TGI [6] [µM] | TGI [7] [µM] | TGI [8] [µM] | TGI [9] [µM] | TGI [10] [µM] |
| --- | --- | --- | --- | --- | --- | --- | --- | --- | --- | --- |
| COc1ccccc1/C=C1\Sc2scc(-c3cccc([N+](=O)[O-])c3)[n+]2C1=O | 35.4 | 12.6 | 22.8 | 26.1 | 15.7 | 12.3 | 26.7 | 24.8 | 3.56 | 34.4 |
| CC(CC(=O)CO[C@H]1[C@H](O)[C@@H](O)[C@@H](O)[C@@H]2NC(=O)c3c(cc4c(c3O)OCO4)[C@H]21)OC1OC(CO)C(O)C(O)C1O (stereo not given in full) | 9.23 | 3.76 | 0.633 | 6.82 | 3.16 | 3.91 | 2.65 | 2.07 | 1.86 | 0.884 |
| Cc1nc2c(o1)C(=O)c1ccccc1C2=NC1CCCCC1N (stereo not given) | 2.91 | 1.29 | 3.02 | 2.89 | 0.275 | 0.343 | 1.66 | 1.21 | 1.08 | 0.564 |
| O=C1C(C(O)(C(F)(F)Cl)C(F)(F)Cl)CCC1C(O)(C(F)(F)Cl)C(F)(F)Cl (stereo not given) | > 10 | > 10 | > 10 | > 10 | > 10 | > 10 | > 10 | > 10 | 8.56 | > 10 |
| CCOC(=O)c1c(O)[nH]c(=O)c(CC)c1C | > 100 | > 100 | > 100 | > 100 | > 100 | > 100 | > 100 | > 100 | > 100 | > 100 |
| CN(C)CCOc1ccc(I)cc1Cc1ccccc1 | 30.5 | 28.6 | 9.62 | 17.4 | 29.9 | 17.4 | 26.7 | 30.6 | 27.8 | 6.79 |
| CCOC(=O)N1CCN(Cc2cc(=O)n3cc(C)ccc3n2)CC1 | > 100 | > 100 | > 100 | > 100 | > 100 | > 100 | > 100 | > 100 | > 100 | > 100 |
| CC(NC1=CC(=O)c2ncccc2C1=O)C(O)c1ccccc1 (stereo not given) | 12.8 | 7.25 | 23.2 | 16.4 | 4.97 | 3 | 16.3 | 36.2 | 19.7 | 9.6 |
| O=C(CCCN1CCC2(CC1)C(=O)NC(=O)N2c1ccccc1)c1ccc(F)cc1 | > 100 | > 100 | > 100 | > 100 | > 100 | > 100 | > 100 | > 100 | > 100 | > 100 |
| O=[N+]([O-])c1ccc(Cl)cc1-n1nc(-c2ccccc2)cc1-c1ccccc1 | > 100 | > 100 | > 100 | > 100 | > 100 | > 100 | > 100 | > 100 | > 100 | > 100 |
| COC(=O)C1Cc2ccc(C)cc2C1=O (stereo not given) | > 100 | > 100 | > 100 | > 100 | > 100 | > 100 | > 100 | > 100 | > 100 | > 100 |
| CC(=O)N1c2ccccc2C(C)(C)OC1C(Cl)(Cl)Cl (stereo not given) | > 100 | 81 | 74.2 | > 100 | > 100 | 83.1 | > 100 | > 100 | > 100 | 71.9 |
| O=C(O)CCC(NC(=O)c1ccc(Nc2nc3ccccc3nc2C(=O)O)cc1)C(=O)O (stereo not given) | > 100 | > 100 | > 100 | > 100 | > 100 | > 100 | > 100 | > 100 | > 100 | > 100 |
| CNNC1=NS(=O)(=O)c2cc(C)c(Cl)cc2S1 | > 10 | > 10 | > 10 | > 10 | > 10 | > 10 | > 10 | > 10 | > 10 | > 10 |
| N=C(/C=C/c1ccc(-c2cn3cc(/C=C/C(=N)N4CCCC4)ccc3n2)cc1)N1CCCC1 | > 100 | > 100 | > 100 | > 100 | > 100 | > 100 | > 100 | > 100 | > 100 | > 100 |
| Cc1c2c(c(C)n1-c1ccccc1)C(=O)N(CCSC(=N)N)C2=O | > 100 | > 100 | > 100 | > 100 | > 100 | > 100 | > 100 | > 100 | > 100 | > 100 |
| CC(C)Nc1[nH]c(C(=O)c2ccccc2)c(N)c1C(=S)Nc1ccccc1 | > 100 | > 100 | 46.2 | > 100 | 43.8 | > 100 | > 100 | > 100 | > 100 | > 100 |

| SMILES | TGI [1] [µM] | TGI [2] [µM] | TGI [3] [µM] | TGI [4] [µM] | TGI [5] [µM] | TGI [6] [µM] | TGI [7] [µM] | TGI [8] [µM] | TGI [9] [µM] | TGI [10] [µM] |
| --- | --- | --- | --- | --- | --- | --- | --- | --- | --- | --- |
| N#Cc1cccc(C2ON=C(c3ccc([N+](=O)[O-])cc3)N2C23CC4CC(CC(C4)C2)C3)c1 (stereo not given) | > 100 | > 100 | > 100 | > 100 | > 100 | > 100 | > 100 | > 100 | > 100 | > 100 |
| Cc1cc(C)c(S(=O)(=O)N[C@@H](/C=C(\Br)CO)C(C)C)c(C)c1 | > 100 | 85.2 | 53.7 | > 100 | 61.6 | 69.8 | 51.8 | > 100 | > 100 | > 100 |
| O=C(O)C(Cc1ccc2c(c1)CCC2)(Cc1ccc2c(c1)CCC2)C(=O)O | > 100 | > 100 | > 100 | > 100 | > 100 | > 100 | > 100 | > 100 | > 100 | > 100 |
| N#C/C(=C1\N=C(c2ccccc2O)Oc2ccccc21)c1ccc([N+](=O)[O-])cc1 | > 100 | > 100 | > 100 | > 100 | > 100 | > 100 | > 100 | > 100 | > 100 | > 100 |
| O=C(NCCN1C(=O)CN=C(c2ccc(Cl)cc2)c2cc(Cl)ccc21)OCc1ccccc1 | 32.7 | 32.4 | 32.7 | 37.8 | 31.6 | 31.9 | 26 | 38.3 | 38.2 | 42.2 |
| Cc1cc(S(N)(=O)=O)c(SCc2nc(N)nc(N(C)C)n2)cc1Cl | > 10 | > 10 | > 10 | > 10 | > 10 | > 10 | > 10 | > 10 | > 10 | > 10 |
| O=C(O)c1cccc(S(=O)(=O)NN2C(=O)CSC2c2ccccc2)c1 (stereo not given) | > 100 | > 100 | > 100 | > 100 | > 100 | > 100 | > 100 | > 100 | > 100 | > 100 |
| COc1cc2c(cc1OC)C1Cc3ccccc3CCN1CC2 (stereo not given) | > 100 | > 100 | > 100 | > 100 | > 100 | > 100 | > 100 | > 100 | > 100 | > 100 |
| CC(C)(C)c1cc(C(=O)/C=C/c2ccc(O)c(O)c2O)cc(C(C)(C)C)c1O | 40.9 | 28.2 | 11.7 | 43.9 | > 67.5 | 28.9 | > 100 | > 63.7 | 10.2 | 12.6 |
| CC(=O)Nc1ccc(Nc2cc(=O)n(C)c(=O)[nH]2)cc1 | > 100 | > 100 | > 100 | > 100 | > 100 | > 100 | > 100 | > 100 | > 100 | > 100 |
| O/N=c1/ccn(O)c2ccccc12 | 6.74 | 3.13 | 0.998 | 5.12 | 18.9 | 17.5 | 6.59 | 1.81 | 2.41 | 1.98 |
| Cc1cccc(/C=N/NC(=S)NCc2ccccn2)n1 | > 100 | > 100 | > 100 | > 100 | > 100 | > 100 | > 100 | > 100 | 67.9 | 73.6 |
| CCOC(=O)c1cccc(NC(=O)CBr)c1 | 3.96 | 4.15 | 5.28 | 2.77 | 4.22 | 2.82 | 3.34 | > 21.6 | 2.6 | 3.31 |
| N#Cc1ncn(-c2ccccc2)c1N | > 100 | > 100 | > 100 | > 100 | > 100 | > 100 | > 100 | > 100 | > 100 | > 100 |
| COc1ccc(NC(=O)CC(=O)n2nc(C)c(N=Nc3ccc(C)c(C)c3)c2C)cc1 | > 100 | > 100 | > 100 | > 100 | > 100 | > 100 | > 100 | > 100 | > 100 | 87 |
| ClC(Cl)(Cl)C1CCOC1n1nc2ccccc2n1 (stereo not given) | > 100 | > 100 | > 100 | > 100 | > 100 | > 100 | > 100 | > 100 | > 100 | > 100 |
| COc1cc(N(CCC#N)CCC#N)ccc1/C(N=Nc1ccc(C)cc1)=N/NC(=O)c1cc(Br)ccc1O | > 100 | 62.6 | 50.1 | 21.9 | > 100 | > 100 | 67.3 | 88 | > 100 | 75 |
